Consider 1 compound from US20260199234A1, “PHARMACEUTICAL COMPOSITIONS OF POLYMERIC MICELLAR CINACALCET, AND METHODS OF PREPARATION AND USE THEREOF” (HANGZHOU SHIXI PHARMACEUTICAL TECHNOLOGY CO., LTD., priority 2023, published 2026).

A short description of data set [1]: Unbound cinacalcet fraction in plasma (30 kD ultrafiltration, RP-HPLC). Conditions: Recon conc. 1 mg/ml. The data set is classed as in vitro ADME, rabbit. On the procedure: The unbound cinacalcet fractions in plasma were determined. The cinacalcet buffer solution and cinacalcet polymer micelles were mixed with rabbit plasma at 1:4 ratio, incubated at 37° C., and filtered through 30 kD ultrafiltration membrane. The filtrate and unfiltered plasma were mixed with acetonitrile at a ratio of 1:4, and the cinacalcet concentrations were determined by an RP-HPLC. Table 10 presents unbound (filtered) and total (unfiltered) cinacalcet concentrations, and calculated % unbound fractions (unbound concentration divided by total concentration).

The conditions of data set [2]: oral, fasted subjects; cited from earlier work.

Take `C[C@@H](NCCCc1cccc(C(F)(F)F)c1)c1cccc2ccccc12` [cinacalcet]: the Total conc. in data set [1] (1:4 with rabbit plasma, 37° C.) is 0.84 ± 0.01 mg/mL. In data set [1] (5 min), the Unbound concentration is 92 ± 16 µg/mL. In addition, in data set [1] (rabbit, rabbit plasma, 5 min), the fraction unbound at 5 min, 0.2 mg/mL is 0.11. The Absolute bioavailability in data set [2] is recorded as 20-25%.
